For 13 compounds, IC50 results are on record in US20250129088A1, “CEREBLON E3 UBIQUITIN LIGASE INHIBITOR” (Gan & Lee Pharmaceuticals Co., Ltd., priority 2022, published 2025).

Each structure is given as a SMILES string.

One may read the IC50 as the concentration needed to halve the response being measured.

For one assay, the target named is E3 ubiquitin ligase CRBN (Homo sapiens (Human), UniProt Q96SW2). The assay is described as follows: CRBN binding activity, HTRF competition with Thalidomide-Red (CEREBLON BINDING KIT). The conditions noted are these: competition with XL665-labelled thalidomide, 3 hours room temperature. The protocol: From this, the binding force of the compounds to the CRBN protein was determined.
CRBN binding activity test kit (CEREBLON BINDING KITS (PE, 64BDCRBNPEG).
The detection is based on homogeneous time-resolved fluorescence (HTRF) technology.
The donor used in this kit was Europium-labeled GST antibody (GST Eu Cryptate Antibody), and the acceptor was thalidomide labeled with XL665 (Thalidomide-Red reagent). The donor binded to the CRBN protein containing the GST tag.
The donor and acceptor were diluted 50 times using the binding buffer from the kit (PROTAC binding buffer 1). The CRBN protein was diluted 45 times. The disclosed compound solution at 8 mM was diluted 10 times with the diluent from the kit (1× diluent), followed by a five-fold gradient dilution, performed 7 times sequentially.
Incubate at room temperature for 3 hours.
The ratio of the emission signals from the acceptor and donor in each individual well is calculated.
The coefficient of variation (CV)=standard deviation (SD)/mean Ratio*100
Using GraphPad Prism, IC50 values were calculated based on compound concentration, Ratio and coefficient of variation.
On the technique in general: TR-FRET usually uses a lanthanide donor and a delayed reading to cut background.

The test system of the next assay is NCI-H358 cells. The assay is described as follows: NCI-H358 cell proliferation inhibition, CCK-8. The conditions noted are these: Homo sapiens, 96 h, NCI-H358, 4 days. It is filed as cell-based. The protocol: The complete medium required for NCI-H358 cells is RPMI1640 (ATCC, Product number: 30-2001) basal medium containing 10% fetal bovine serum. NCI-H358 cells were seeded in a 96-well plate at a density of 2,800 cells/well, and the next day, different concentrations of the compounds of the present invention were prepared to treat the cells, and the cells were treated for 4 days in a 37° C., 5% CO2 cell culture incubator. Cell viability was detected using a CCK-8 kit (Beyotime, Product number: C0040) according to the manufacturer's instructions. According to the inhibition rate, the GraphPad Prism software was used to calculate the IC50 value of each compound for 4 days, and the results are shown in Table 5.

The test system of another assay is Z138 cells. Put plainly: Z138 cell proliferation inhibition, CCK-8. The assay is classed as cell-based. Particulars: Homo sapiens, Z-138, 96 h, Z138, 4 days. On the procedure:
The complete medium required for Z138 cells is IMDM (ATCC, Product number: 30-2005) basal medium containing 10% horse serum. Z138 cells were seeded in a 96-well plate at a density of 10,000 cells/well, and different concentrations of the compound of the present invention and a positive control sample Ibrutinib (source: Bide Pharmaceuticals) were prepared to treat the cells. The cells were incubated in a 37° C., 5% CO2 cell incubator for 4 days. Cell viability was detected using the CCK-8 kit (Beyotime, Product number: C0040) according to the manufacturer's instructions. According to the inhibition rate, the GraphPad Prism software was used to calculate the IC50 value of each compound for 4 days, and the results are shown in Table 14.

The subject of a further assay is JeKo-1 cells. Put plainly: JeKo-1 cell proliferation inhibition, CCK-8. Particulars: Homo sapiens, 96 h, JeKo-1, 4 days. The assay is classed as cell-based. The protocol: The complete medium required for JeKo-1 cells is RPMI1640 (ATCC, Product number: 30-2001) basal medium containing 20% fetal bovine serum. The JeKo-1 cells were seeded in a 96-well plate at a density of 10,000 cells/well, and different concentrations of the compounds of the present invention were prepared to treat the cells at the same time. The cells were incubated at a 37° C., 5% CO2 cell culture incubator for 4 days. Cell viability was detected using the CCK-8 kit (Beyotime, Product number: C0040) according to the manufacturer's instructions. According to the inhibition rate, the GraphPad Prism software was used to calculate the IC50 value of each compound for 4 days, and the results are shown in Table 13.

Take `O=C1CCC(N2Cc3cc4c(cc3C2=O)CCC2(CCNCC2)O4)C(=O)N1` (stereo not drawn) [Compound12, 3-(6′-oxo-3′,4′,6′,8′-tetrahydro-7′H-spiro[piperidine-4,2′-pyrano[2,3-f]isoindole]-7′-yl)piperidine-2,6-dione]: at E3 ubiquitin ligase CRBN, the IC50 was 3 µM.
At E3 ubiquitin ligase CRBN, `O=C1CCC(N2Cc3cc4c(cc3C2=O)CCC2(CNC2)O4)C(=O)N1` (stereo not drawn) [Compound13, 3-(6′-oxo-3′,4′,6′,8′-tetrahydro-7′H-spiro[azetidine-3,2′-pyrano[2,3-f]isoindole]-7′-yl)piperidine-2,6-dione] gave an IC50 of 3.9 µM.
On the same count and under the same terms, in the case of `O=C1CCC(N2Cc3cc4c(cc3C2=O)OCC2(CCNCC2)O4)C(=O)N1` (stereo not drawn) [Compound16, 3-(6′-oxo-6′,8′-dihydro-3′H,7′H-spiro[piperidine-4,2′-[1,4]dioxino[2,3-f]isoindole]-7′-yl)piperidine-2,6-dione] it was 1.2 µM; in that of `O=C1CCC(N2C(=O)c3cc4c(cc3C2=O)C2(CCNCC2)CO4)C(=O)N1` (stereo not drawn) [Compound17, 6-(2,6-dioxopiperidin-3-yl)-6-hydro-2H, 5H-spiro[[2,3-f]isoindole-3,4′-piperidin]-5,7-dione], 15.2 µM.
Regarding `O=C1CCC(N2C(=O)c3ccc4c(c3C2=O)C2(CCNCC2)CO4)C(=O)N1` (stereo not drawn) [Compound27, 2-(2,6-dioxopiperidin-3-yl)-2-hydro-1H,7H-spiro[furo[3,2-e]isoindole-8,4′-piperidine]-1,3-dione], the IC50 at E3 ubiquitin ligase CRBN is 36.4 µM. This IC50 is about 2.4-fold higher than that of the compound before.
In turn, `COc1cc2ncnc(Nc3ccc(F)c(Cl)c3)c2cc1OCCCN1CCN(CCOCCC(=O)N2CCC3(CC2)COc2cc4c(cc2C3)C(=O)N(C2CCC(=O)NC2=O)C4=O)CC1` (stereo not drawn) [PROTAC 22, 1-(3-(2-(4-(3-((4-((3-chloro-4-fluorophenyl)amino)-7-methoxyquinazolin-6-yl)oxy)propyl)piperazin-1-yl)ethoxy)propionyl)-7′-(2,6-dioxopiperidin-3-yl)-2′H-spiro[piperidine-4,3′-pyrano[2,3-f]isoindole]-6′,8′(4′H,7′H)-dione] came in with an IC50 with NCI-H358 cells of 52.1 µM.
On the same count and under the same terms, in the case of `COc1cc2ncnc(Nc3ccc(F)c(Cl)c3)c2cc1OCCCN1CCN(CCOCCC(=O)N2CC3(CCc4cc5c(cc4O3)C(=O)N(C3CCC(=O)NC3=O)C5=O)C2)CC1` (stereo not drawn) [PROTAC 23, 1-(3-(2-(4-(3-((4-((3-chloro-4-fluorophenyl)amino)-7-methoxyquinazolin-6-yl)oxy)propyl)piperazin-1-yl)ethoxy)propionyl)-7′-(2,6-dioxopiperidin-3-yl)-3′,4′-dihydro-6′H-spiro[azetidine-3,2′-pyrano[2,3-f]isomdole]-6′,8′(7′H)-dione] it was 71.2 µM; in that of `COc1cc2ncnc(Nc3ccc(F)c(Cl)c3)c2cc1OCCCN1CCN(CCOCCC(=O)N2CCC3(CC2)COc2cc4c(cc23)C(=O)N(C2CCC(=O)NC2=O)C4=O)CC1` (stereo not drawn) [PROTAC 24, 1′-(3-(2-(4-(3-((4-((3-chloro-4-fluorophenyl)amino)-7-methoxyquinazolin-6-yl)oxy)propyl)piperazin-1-yl)ethoxy)propionyl)-6-(2,6-dioxopiperidin-3-yl)-6-hydro-2H,5H-spiro[furo[2,3-f]isoindole-3,4′-piperdine]-5,7-dione], 31.2 µM.
Regarding `Nc1ncnc2c1c(-c1ccc(Oc3ccccc3)cc1)nn2[C@@H]1CCCN(CCOCCC(=O)N2CCC3(CCc4cc5c(cc4O3)C(=O)N(C3CCC(=O)NC3=O)C5=O)CC2)C1` (stereo partly drawn) [PROTAC 32, 1-(3-(2-((R)-3-(4-amino-3-(4-phenoxyphenyl)-1H-pyrazolo[3,4-d]pyrimidin-1-yl)piperidin-1-yl)ethoxy)propionyl)-7′-(2,6-dioxopiperidin-3-yl)-3′,4′-dihydro-6′H-spiro[piperidin-4,2′-pyrano[2,3-f]isoindole]-6′,8′(7′H)-dione], the IC50 in the assay with Z138 cells amounted to 16 µM; in the assay on JeKo-1 cells, 18.4 µM.
For `Nc1ncnc2c1c(-c1ccc(Oc3ccccc3)cc1)nn2[C@@H]1CCCN(CCOCCC(=O)N2CC3(CCc4cc5c(cc4O3)C(=O)N(C3CCC(=O)NC3=O)C5=O)C2)C1` (stereo partly drawn) [PROTAC 33, 1-(3-(2-((R)-3-(4-amino-3-(4-phenoxyphenyl)-1H-pyrazolo[3,4-d]pyrimidin-1-yl)piperidin-1-yl)ethoxy)propionyl)-7′-(2,6-dioxopiperidin-3-yl)-3′,4′-dihydro-6′H-spiro[azetidine-3,2′-pyrano[2,3-f]isoindole]-6′,8′(7′H)-dione], in that order: 34.9 µM and 63.8 µM.
For `Nc1ncnc2c1c(-c1ccc(Oc3ccccc3)cc1)nn2[C@@H]1CCCN(CCOCCC(=O)N2CCC3(CCc4cc5c(cc4O3)CN(C3CCC(=O)NC3=O)C5=O)CC2)C1` (stereo partly drawn) [PROTAC 35, 3-(1-(3-(2-((R)-3-(4-amino-3-(4-phenoxyphenyl)-1H-pyrazolo[3,4-d]pyrimidine-1-yl)piperidin-1-yl)ethoxy)propionyl)-6′-oxo-3′,4′,6′,8′-tetrahydro-7′H-spiro[piperidine-4, 2′-pyrano[2,3-f]isoindol]-7′-yl)piperidine-2,6-dione], in that order: 22.6 µM and 19.1 µM.
`Nc1ncnc2c1c(-c1ccc(Oc3ccccc3)cc1)nn2[C@@H]1CCCN(CCOCCC(=O)N2CCC3(CCc4cc5c(cc4O3)C(=O)N(C3CCC(=O)NC3=O)C5)CC2)C1` (stereo partly drawn) [PROTAC 36, 3-(1-(3-(2-((R)-3-(4-amino-3-(4-phenoxyphenyl)-1H-pyrazolo[3,4-d]pyrimidine-1-yl)piperidin-1-yl)ethoxy)propionyl)-8′-oxo-3′,4′,6′,8′-tetrahydro-7′H-spiro[piperidine-4, 2′-pyrano[2,3-f]isoindol]-7′-yl)piperidine-2,6-dione]: the IC50 with Z138 cells came to 25.4 µM; in the assay on JeKo-1 cells it was 19.2 µM.
For `Nc1ncnc2c1c(-c1ccc(Oc3ccccc3)cc1)nn2[C@@H]1CCCN(CCOCCC(=O)N2CCC3(CC2)COc2cc4c(cc2O3)CN(C2CCC(=O)NC2=O)C4=O)C1` (stereo partly drawn) [PROTAC 37, 3-(1-(3-(2-((R)-3-(4-amino-3-(4-phenoxyphenyl)-1H-pyrazolo[3,4-d]pyrimidine-1-yl)piperidin-1-yl)ethoxy)propionyl)-6′-oxo-6′,8′-dihydro-3′H,7′H-spiro[piperidine-4,2′-[1,4]dioxino[2,3-f]isoindole]-7′-yl)piperidine-2,6-dione], in that order: 36.1 µM and 32.4 µM.
